Reference: patent US20260258021A1, “MONOFLUORINATED COUMARIN FLUOROPHORES AND USES THEREOF” (Ohio State Innovation Foundation, priority 2023, published 2026)
Where “and” joins values, the source holds several entries; their conditions need not be identical. Equal values may be shown once. Read-outs that look alike come from different tables or passages of the source. Marks after values point to notes of the source that are not given here. Values belong to the compound of their own block, whether it stands above or below them.

How the values were obtained:
HEK293T cells = test: Cytotoxicity by propidium iodide staining in the FPCBA with DDR1-expressing cells; assay type: cell-based; settings: living HEK293T cells, FPCBA competition experiments, [6FC-Dasatinib]=1 μM
Description: FIGS. 6A and 6B depict a fluorescent probe cellular binding assay (FPCBA) with 6FC-Dasatanib and native DDR1 kinase (IRES-mVenus). (FIG. 6A) Binding of 6FC-Dasatanib to native DDR1 expressed in living HEK293T cells by flow cytometry (2 h, 37° C.). (FIG. 6B) Competition experiments against native DDR1 in living HEK293T cells with the kinase inhibitors ponatinib and dasatinib by flow cytometry. [6FC-Dasatinib]=1 μM.
The previously reported FPCBA approach (Yin, Y. et al. J Am. Chem. Soc. 2024, 146 (1), 187-200) was used to analyze binding of small molecules to native full length DDR1 kinase overexpressed in living HEK293T cells (IRES-mVenus vector) by flow cytometry.

[1] = literature; cited from earlier work
[2] = system: microtubules of living HeLa cells; settings: for Kd: read-out: cellular Kd
physchem = settings: aqueous buffers of varied pH
[3] = Absorbance and fluorescence spectroscopy of coumarin amides (λmax, molar extinction coefficient, quantum yield); assay type: physicochemical; settings: for ε405 nm (molar extinction coefficient): 405 nm, 10% DMSO; for ε405 nm (molar extinction coefficient) / Φ (quantum yield): PBS; for Φ (quantum yield) / Abs. λmax / Em. λmax: 1% DMSO; for Φ (quantum yield): relative to 30; for Abs. λmax / Em. λmax: aqueous PBS
Description: FIG. […] FIG. 4B depicts the determination of molar extinction coefficients (ε405 nm) of 26-28 as previously described in J. Am. Chem. Soc. […] The integrated fluorescence intensity (Ex. 405 nm, Em. 420-700 nm) was plotted against the maximum absorbance of the sample at the concentration studied (100 nM-6.25 nM) as extrapolated from absorbance measurements at higher concentrations. The slope determined by linear least squares (zero intercept) is proportional to the quantum yield. Spectra were acquired with a BMG LabTech ClarioStar Plus microtiterplate reader.

[4] = cited from earlier work; for ε405 nm (molar extinction coefficient): 405 nm, PBS, 10% DMSO, previously described; for Φ (quantum yield): pH 7.4, 1% DMSO, based on a previously reported PB-biotin amide
purified microtubules = settings: literature; cited from earlier work
HeLa cells = settings: 3 h, 37° C., absence of verapamil
[5] = living HeLa cells, 3 h, 37° C., absence of verapamil
[6] = living HeLa cells, 3 h, 37° C., presence of verapamil (100 μM)

Compound: Cc1nc(Nc2ncc(C(=O)Nc3c(C)cccc3Cl)s2)cc(N2CCN(CCOCCNC(=O)c3cc4cc(F)c(O)cc4oc3=O)CC2)n1 [6FC-Dasatinib, N-(2-chloro-6-methylphenyl)-2-((6-(4-(2-(2-(6-fluoro-7-hydroxy-2-oxo-2H-chromene-3-carboxamido)ethoxy)ethyl)piperazin-1-yl)-2-methylpyrimidin-4-yl)amino)thiazole-5-carboxamide]
- Cytotoxicity (propidium iodide staining) (HEK293T cells): No cytotoxicity was observed

Compound: O=C(O)c1cc2ccc(O)cc2oc1=O [Compound 1, 7-hydroxycoumarin-3-carboxylic acid]
- pKa of the phenol [1]: 7.0-7.5

Compound: O=C(O)c1cc2cc(F)c(O)c(F)c2oc1=O [Compound 2, Pacific Blue]
- pKa of the phenol [1]: 4.7

Compound: CC(=O)O[C@H]1C(=O)[C@]2(C)[C@@H](OC(=O)CCCNC(=O)c3cc4c(F)cc(O)cc4oc3=O)C[C@H]3OC[C@@]3(OC(C)=O)[C@H]2[C@H](OC(=O)c2ccccc2)[C@]2(O)C[C@H](OC(=O)[C@H](O)[C@@H](NC(=O)c3ccccc3)c3ccccc3)C(C)=C1C2(C)C [Compound 8, (2aR,4S,4aS,6R,9S,11S,12S,12bS)-9-(((2R,3S)-3-benzamido-2-hydroxy-3-phenylpropanoyl)oxy)-12-(benzoyloxy)-4-((4-(5-fluoro-7-hydroxy-2-oxo-2H-chromene-3-carboxamido)butanoyl)oxy)-11-hydroxy-4a,8,13,13-tetramethyl-5-oxo-3,4,4a,5,6,9,10,11,12,12a-decahydro-1H-7,11-methanocyclodeca[3,4]benzo[1,2-b]oxete-6,12b(2aH)-diyl diacetate]
- S/B (maximal signal-to-background, fold change) ([2]; 0.4 μM probe, absence of verapamil): 7 fold
- cellular Kd [2, 5]: low affinity prevented accurate determination
- Kd [2, 6]: 150 nM

Compound: CC(=O)O[C@H]1C(=O)[C@]2(C)[C@@H](OC(=O)CCCNC(=O)c3cc4cc(F)c(O)cc4oc3=O)C[C@H]3OC[C@@]3(OC(C)=O)[C@H]2[C@H](OC(=O)c2ccccc2)[C@]2(O)C[C@H](OC(=O)[C@H](O)[C@@H](NC(=O)c3ccccc3)c3ccccc3)C(C)=C1C2(C)C [Compound 9, (2aR,4S,4aS,6R,9S,11S,12S,12bS)-9-(((2R,3S)-3-benzamido-2-hydroxy-3-phenylpropanoyl)oxy)-12-(benzoyloxy)-4-((4-(6-fluoro-7-hydroxy-2-oxo-2H-chromene-3-carboxamido)butanoyl)oxy)-11-hydroxy-4a,8,13,13-tetramethyl-5-oxo-3,4,4a,5,6,9,10,11,12,12a-decahydro-1H-7,11-methanocyclodeca[3,4]benzo[1,2-b]oxete-6,12b(2aH)-diyl diacetate]
- Kd [2, 5]: 2400 nM
- Kd [2, 6]: 150 nM

Compound: CC(=O)O[C@H]1C(=O)[C@]2(C)[C@@H](OC(=O)CCCNC(=O)c3cc4ccc(O)c(F)c4oc3=O)C[C@H]3OC[C@@]3(OC(C)=O)[C@H]2[C@H](OC(=O)c2ccccc2)[C@]2(O)C[C@H](OC(=O)[C@H](O)[C@@H](NC(=O)c3ccccc3)c3ccccc3)C(C)=C1C2(C)C [Compound 10, (2aR,4S,4aS,6R,9S,11S,12S,12bS)-9-(((2R,3S)-3-Benzamido-2-hydroxy-3-phenylpropanoyl)oxy)-12-(benzoyloxy)-4-((4-(8-fluoro-7-hydroxy-2-oxo-2H-chromene-3-carboxamido)butanoyl)oxy)-11-hydroxy-4a,8,13,13-tetramethyl-5-oxo-3,4,4a,5,6,9,10,11,12,12a-decahydro-1H-7,11-methanocyclodeca[3,4]benzo[1,2-b]oxete-6,12b(2aH)-diyl diacetate]
- Kd [2, 5]: 3500 nM
- Kd [2, 6]: 230 nM

- pKa (physchem): 6.9
- ε405 nm (molar extinction coefficient) ([3]; pH 7.4): 25,000 (7.4) M^−1 cm^−1
- Φ (quantum yield) ([3]; pH 7.4): 0.73
- Abs. λmax ([3]; pH 7.4): 400 nm
- Em. λmax ([3]; pH 7.4): 449 nm
Compound: CCCCCCNC(=O)c1cc2c(F)cc(O)cc2oc1=O [Compound 26, 5-Fluoro-N-hexyl-7-hydroxy-2-oxo-2H-chromene-3-carboxamide]

- pKa (physchem): 6.5
- ε405 nm (molar extinction coefficient) ([3]; pH 7.4): 37,000 M^−1 cm^−1
- Φ (quantum yield) ([3]; pH 7.4): 0.84
- Abs. λmax ([3]; pH 7.4): 401 nm
- Em. λmax ([3]; pH 7.4): 451 nm
- Brightness (product of molar extinction coefficient and quantum yield) relative to PB-hexanamide (30) ([3]; pH 7.4): 145%
Compound: CCCCCCNC(=O)c1cc2cc(F)c(O)cc2oc1=O [Compound 27, 6-Fluoro-N-hexyl-7-hydroxy-2-oxo-2H-chromene-3-carboxamide]
- ε405 nm (molar extinction coefficient) ([3]; pH 7.4, listed as 6FC-hexanamide (27)): 37,000 M^−1 cm^−1 and 37,000 (7.4) M^−1 cm^−1

- pKa (physchem): 6
- ε405 nm (molar extinction coefficient) ([3]; pH 7.4): 28,000 (7.4) M^−1 cm^−1
- Φ (quantum yield) ([3]; pH 7.4): 0.69
- Abs. λmax ([3]; pH 7.4): 402 nm
- Em. λmax ([3]; pH 7.4): 457 nm
Compound: CCCCCCNC(=O)c1cc2ccc(O)c(F)c2oc1=O [Compound 28, 8-Fluoro-N-hexyl-7-hydroxy-2-oxo-2H-chromene-3-carboxamide]

- pKa (physchem): 7.3
- Φ (quantum yield) ([3]; pH 7.4): 0.35
- Φ (quantum yield) ([3]; pH 10): 0.62
- Abs. λmax ([3]; pH 7.4): 401 nm
- Em. λmax ([3]; pH 7.4): 447 nm
Compound: CCCCCCNC(=O)c1cc2ccc(O)cc2oc1=O [Compound 29, N-Hexyl-7-hydroxy-2-oxo-2H-chromene-3-carboxamide, reference compound]
- ε405 nm (molar extinction coefficient) ([4]; pH 10): 22,000 (10) M^−1 cm^−1

- pKa (physchem): 4.1
- Abs. λmax ([3]; pH 7.4): 403 nm
- Em. λmax ([3]; pH 7.4): 447 nm
Compound: CCCCCCNC(=O)c1cc2cc(F)c(O)c(F)c2oc1=O [Compound 30, 6,8-Difluoro-N-hexyl-7-hydroxy-2-oxo-2H-chromene-3-carboxamide, reference compound]
- ε405 nm (molar extinction coefficient) ([4]; pH 7.4): 29,000 (7.4) M^−1 cm^−1
- Φ (quantum yield) [4]: 0.74
- Φ (quantum yield) ([4]; listed as PB-hexanamide (30)): 0.74^‡

Compound: COC(=O)c1cc2cc(F)c(O)c(F)c2oc1=O [PB methyl ester]
- pKa of the phenol [1]: 3.7

Compound: CC(=O)O[C@H]1C(=O)[C@@]2(C)[C@H]([C@H](OC(=O)c3ccccc3)[C@]3(O)C[C@H](OC(=O)[C@H](O)[C@@H](NC(=O)c4ccccc4)c4ccccc4)C(C)=C1C3(C)C)[C@]1(OC(C)=O)CO[C@@H]1C[C@@H]2O [paclitaxel]
- Ki (purified microtubules): 19 nM and 27 nM and 31 nM

Compound: (2aR,4S,4aS,6R,9S,11S,12S,12bS)-9-(((2R,3S)-3-benzamido-2-hydroxy-3-phenylpropanoyl)oxy)-12-(benzoyloxy)-11-hydroxy-4-((4-(7-hydroxy-2-oxo-2H-chromene-3-carboxamido)butanoyl)oxy)-4a,8,13,13-tetramethyl-5-oxo-3,4,4a,5,6,9,10,11,12,12a-decahydro-1H-7,11-methanocyclodeca[3,4]benzo[1,2-b]oxete-6,12b(2aH)-diyldiacetate [Compound 6]
- Cellular uptake (HeLa cells): high cellular uptake
